The results in this text go back to PubChem BioAssay AID256 (DTP/NCI, 2004).

The assay concerns CD2F1 mice, L1210 leukemia ip, survival T/C. In words: NCI In Vivo Anticancer Drug Screen. Data for tumor model L1210 Leukemia (intraperitoneal) in CD2F1 (CDF1) mice. Conditions: higher = longer survival. An outline of the steps: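 Mice carrying a transplanted tumor received test compound or vehicle alone. The value is the measurement in the treated group divided by that in the vehicle-treated control group.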

Where [1] appears, read: endpoint: mean survival time, dose: 50.0 mg/kg/injection, schedule: Q01DX009 (ip), vehicle: saline with Tween-80.
[2] abbreviates: endpoint: mean survival time, dose: 100.0 mg/kg/injection, schedule: Q01DX009 (ip), vehicle: saline with Tween-80.
The mark [3] stands for this setting: endpoint: mean survival time, dose: 100.0 mg/kg/injection, schedule: Q04DX003 (ip), vehicle: saline with Tween-80.
[4] abbreviates: endpoint: mean survival time, dose: 200.0 mg/kg/injection, schedule: Q04DX003 (ip), vehicle: saline with Tween-80.
Where [5] appears, read: endpoint: mean survival time, dose: 200.0 mg/kg/injection, schedule: Q01DX009 (ip), vehicle: saline with Tween-80.
Where [6] appears, read: endpoint: mean survival time, dose: 400.0 mg/kg/injection, schedule: Q01DX009 (ip), vehicle: saline with Tween-80.
[7] abbreviates: endpoint: mean survival time, dose: 400.0 mg/kg/injection, schedule: Q04DX003 (ip), vehicle: saline with Tween-80.
The mark [8] stands for this setting: endpoint: mean survival time, dose: 25.0 mg/kg/injection, schedule: Q04DX002 (ip), vehicle: saline with Tween-80.
Setting [9] is: endpoint: mean survival time, dose: 50.0 mg/kg/injection, schedule: Q04DX002 (ip), vehicle: saline with Tween-80.
The mark [10] stands for this setting: endpoint: mean survival time, dose: 100.0 mg/kg/injection, schedule: Q04DX002 (ip), vehicle: saline with Tween-80.
The mark [11] stands for this setting: endpoint: mean survival time, dose: 200.0 mg/kg/injection, schedule: Q04DX002 (ip), vehicle: saline with Tween-80.
The mark [12] stands for this setting: endpoint: mean survival time, dose: 400.0 mg/kg/injection, schedule: Q04DX002 (ip), vehicle: saline with Tween-80.
Setting [13] is: endpoint: mean survival time, dose: 100.0 mg/kg/injection, schedule: Q01DX001 (ip), vehicle: saline with Tween-80.
[14] abbreviates: endpoint: mean survival time, dose: 200.0 mg/kg/injection, schedule: Q01DX001 (ip), vehicle: saline with Tween-80.
[15] abbreviates: endpoint: mean survival time, dose: 400.0 mg/kg/injection, schedule: Q01DX001 (ip), vehicle: saline with Tween-80.

Inconclusive results and toxic doses are left out.

In the case of `O=C(O)C1SCCCS1`, the T/C was 105 % of control (endpoint: mean survival time, dose: 12.5 mg/kg/injection, schedule: Q04DX002 (ip), vehicle: saline); 94 % of control (endpoint: mean survival time, dose: 25.0 mg/kg/injection, schedule: Q04DX002 (ip), vehicle: saline); 94 % of control (endpoint: mean survival time, dose: 50.0 mg/kg/injection, schedule: Q04DX002 (ip), vehicle: saline).
As for `CCCCCCCCCCCCCCCC(=O)N1CCN(C)CC1`, the T/C runs as follows: under setting [1], 89 % of control; under setting [2], 91 % of control; under setting [3], 93 % of control; under setting [4], 90 % of control.
Turning to `COC(CCN1C(=O)c2ccccc2C1=O)C(Br)C(=O)O` (stereo not drawn), the T/C is, setting by setting: under setting [2], 92 % of control; under setting [3], 101 % of control; under setting [5], 92 % of control; under setting [4], 97 % of control; under setting [6], 89 % of control; under setting [7], 98 % of control.
As to `CCCCCCC(C)NCC(O)COc1cccc(C)c1` (stereo not drawn), the T/C (endpoint: mean survival time, dose: 12.5 mg/kg/injection, schedule: Q04DX002 (ip), vehicle: saline with Tween-80) is 101 % of control; the T/C under setting [8] was 96 % of control; the T/C under setting [9] was 93 % of control.
For `CCOC(=O)CC1=Nc2c(Cl)ncnc2NN1`, the T/C (endpoint: mean survival time, dose: 100.0 mg/kg/injection, schedule: Q01DX001 (ip), vehicle: carboxymethylcellulose (CMC)) was 95 % of control and the T/C (endpoint: mean survival time, dose: 200.0 mg/kg/injection, schedule: Q01DX001 (ip), vehicle: carboxymethylcellulose (CMC)) is 91 % of control.
On to `CCOc1c(Cl)cc(Cl)cc1C(c1ccccc1S(=O)(=O)O)c1cc(Cl)cc(Cl)c1OCC`, for which the T/C (endpoint: mean survival time, dose: 6.25 mg/kg/injection, schedule: Q01DX009 (ip), vehicle: saline sonified) is 97 % of control; the T/C (endpoint: mean survival time, dose: 6.25 mg/kg/injection, schedule: Q04DX003 (ip), vehicle: saline sonified) is 97 % of control; the T/C (endpoint: mean survival time, dose: 12.5 mg/kg/injection, schedule: Q01DX009 (ip), vehicle: saline sonified) was 96 % of control; the T/C (endpoint: mean survival time, dose: 12.5 mg/kg/injection, schedule: Q04DX003 (ip), vehicle: saline sonified) was 103 % of control; the T/C (endpoint: mean survival time, dose: 25.0 mg/kg/injection, schedule: Q01DX009 (ip), vehicle: saline sonified) is 96 % of control; the T/C (endpoint: mean survival time, dose: 25.0 mg/kg/injection, schedule: Q04DX003 (ip), vehicle: saline sonified) was 95 % of control.
On to `COC(=O)C1CCC(C(=O)O)CC1` (stereo not drawn), for which the T/C by setting is: under setting [2], 92 % of control; under setting [3], 101 % of control; under setting [5], 94 % of control; under setting [4], 97 % of control; under setting [6], 89 % of control; under setting [7], 95 % of control.
In the case of `CC(C)(C)CC(C)(C)Nc1nc(NC(C)(C)CC(C)(C)C)nc(NC(C)(C)CC(C)(C)C)n1`, the T/C is 101 % of control (endpoint: mean survival time, dose: 12.5 mg/kg/injection, schedule: Q01DX009 (ip), vehicle: saline with Tween-80); 95 % of control (endpoint: mean survival time, dose: 25.0 mg/kg/injection, schedule: Q01DX009 (ip), vehicle: saline with Tween-80); 97 % of control under setting [1].
`Cc1ccc2nc(-c3ccccc3N)[nH]c2c1`: the T/C under setting [3] was 87 % of control, the T/C under setting [4] was 92 % of control and the T/C under setting [7] is 89 % of control.
As for `CCCCOC(=O)COc1ccc(F)cc1F`, the T/C was 95 % of control under setting [10], 100 % of control under setting [11] and 92 % of control under setting [12].
In the case of `O=[N+]([O-])c1ccc(N/N=C2/CCSc3ccccc32)cc1`, the T/C by setting is: (endpoint: mean survival time, dose: 100.0 mg/kg/injection, schedule: Q01DX009 (ip), vehicle: saline) 102 % of control; (endpoint: mean survival time, dose: 200.0 mg/kg/injection, schedule: Q01DX009 (ip), vehicle: saline) 101 % of control; (endpoint: mean survival time, dose: 400.0 mg/kg/injection, schedule: Q01DX009 (ip), vehicle: saline) 95 % of control.
Take `COc1ccc(/C=N\NC(=O)CCCCCCCCC(=O)N/N=C\c2ccc(OC)c(O)c2)cc1O`: the T/C is 97 % of control under setting [1], 97 % of control under setting [2] and 105 % of control under setting [5].
Turning to `NC(=O)N/N=C1\CC(S(=O)(=O)O)NC(=O)N1` (stereo not drawn), the T/C is 98 % of control under setting [9], 95 % of control under setting [10] and 95 % of control under setting [11].
Regarding `c1ccc(CSc2ncnc3nc[nH]c23)nc1`, the T/C is 117 % of control (endpoint: mean survival time, dose: 133.0 mg/kg/injection, schedule: Q04DX003 (ip), vehicle: saline with Tween-80) and 102 % of control (endpoint: mean survival time, dose: 300.0 mg/kg/injection, schedule: Q04DX003 (ip), vehicle: saline with Tween-80).
Consider `OC(Cc1cccc(/C=N/N2CCOCC2)n1)(C(F)(F)F)C(F)(F)F`, for which the T/C is, setting by setting: under setting [4], 89 % of control; under setting [7], 89 % of control.
`O=P(O)(O)c1ccc(Oc2ccccc2)cc1`: the T/C by setting is: (endpoint: mean survival time, dose: 50.0 mg/kg/injection, schedule: Q04DX003 (ip), vehicle: saline) 102 % of control; (endpoint: mean survival time, dose: 100.0 mg/kg/injection, schedule: Q04DX003 (ip), vehicle: saline) 93 % of control; (endpoint: mean survival time, dose: 200.0 mg/kg/injection, schedule: Q04DX003 (ip), vehicle: saline) 103 % of control.
Regarding `C=CC(NC(=O)CN)C(=O)O` (stereo not drawn), the T/C was 115 % of control under setting [13]; 107 % of control (endpoint: mean survival time, dose: 100.0 mg/kg/injection, schedule: Q04DX002 (ip), vehicle: saline); 105 % of control under setting [14]; 93 % of control (endpoint: mean survival time, dose: 200.0 mg/kg/injection, schedule: Q04DX002 (ip), vehicle: saline); 114 % of control under setting [15]; 110 % of control (endpoint: mean survival time, dose: 400.0 mg/kg/injection, schedule: Q04DX002 (ip), vehicle: saline).
Take `NC(N)=N/N=C\c1ccc2ccccc2c1`: the T/C runs as follows: under setting [8], 97 % of control; under setting [9], 101 % of control.
Turning to `CN1CC=C(c2ccccc2)CC1`, the T/C was 102 % of control (endpoint: mean survival time, dose: 18.8 mg/kg/injection, schedule: Q04DX003 (ip), vehicle: saline); 104 % of control (endpoint: mean survival time, dose: 37.5 mg/kg/injection, schedule: Q04DX003 (ip), vehicle: saline); 100 % of control (endpoint: mean survival time, dose: 75.0 mg/kg/injection, schedule: Q01DX001 (ip), vehicle: saline).
As to `CSCCSC`, the T/C reads like this: under setting [13], 104 % of control; under setting [14], 98 % of control; under setting [15], 96 % of control.
As to `Nc1ccc2ccc(N)cc2c1`, the T/C by setting is: (endpoint: median survival time, dose: 25.0 mg/kg/injection, schedule: Q01DX009 (ip), vehicle: saline with Tween-80) 98 % of control; (endpoint: median survival time, dose: 50.0 mg/kg/injection, schedule: Q01DX009 (ip), vehicle: saline with Tween-80) 100 % of control; (endpoint: median survival time, dose: 100.0 mg/kg/injection, schedule: Q01DX009 (ip), vehicle: saline with Tween-80) 100 % of control; (endpoint: median survival time, dose: 200.0 mg/kg/injection, schedule: Q01DX009 (ip), vehicle: saline with Tween-80) 105 % of control.
For `CC1=C(/C=C/C(=O)O)C(C)(C)CCC1`, the T/C under setting [10] is 92 % of control, the T/C under setting [11] is 96 % of control and the T/C under setting [12] is 92 % of control.
With `Cc1ccc(NC(=O)OCCOc2ccccc2Cl)cc1C`, the T/C is, setting by setting: under setting [1], 96 % of control; under setting [2], 93 % of control; under setting [5], 93 % of control.
In the case of `Nc1nc2c(ncn2-c2ccc(OCCCc3ccccc3)cc2)c(=O)[nH]1`, the T/C under setting [14] was 88 % of control and the T/C under setting [15] is 89 % of control.
Take `O=c1[nH]c(SCc2ccccc2)nc(Cc2ccccc2)c1CCO`: the T/C is 95 % of control under setting [3], 94 % of control under setting [4] and 90 % of control under setting [7].
Turning to `CC([NH-])CC(C)[NH-].O=C(O)C(=O)O.[Pt+2]` (stereo not drawn), the T/C is 169 % of control (endpoint: mean survival time, dose: 12.5 mg/kg/injection, schedule: Q04DX003 (ip), vehicle: saline with Tween-80); 156 % of control (endpoint: mean survival time, dose: 12.5 mg/kg/injection, schedule: Q04DX003 (ip), vehicle: saline); 100 % of control (endpoint: mean survival time, dose: 25.0 mg/kg/injection, schedule: Q04DX003 (ip), vehicle: saline with Tween-80); 186 % of control (endpoint: mean survival time, dose: 25.0 mg/kg/injection, schedule: Q04DX003 (ip), vehicle: saline).
